Reference: patent US20230265059A1, “SOLID STATE FORMS OF 6-CARBOXY-2-(3, 5-DICHLOROPHENYL)-BENZOXAZOLE OF FORMULA-I AND PHARMACEUTICALLY ACCEPTABLE SALTS THEREOF” (NURAY CHEMICALS PRIVATE LIMITED, priority 2020, published 2023)

Experiment: Drying of the hydrate form to remove water
Assay type: physicochemical
Conditions: hydrate form having moisture content about 6.64%; drying at 55° C. temperature for 24 hours
Text: The hydrate form of 6-carboxy-2-(3,5-dichlorophenyl)-benzoxazole meglumine of Formula-IA according to the present disclosure having moisture content in the range of about 3.5% to about 9% preferably about 5 to 7%. The hydrate form of 6-carboxy-2-(3,5-dichlorophenyl)-benzoxazole meglumine salt of Formula-IA having moisture up to 15 to 20% but the only 5 to 7% water is present in crystal lattice and the excess water molecule is present in surface of the Tafamidis meglumine crystal. […] The hydrate form of 6-carboxy-2-(3,5-dichlorophenyl)-benzoxazole meglumine salt of Formula-IA having moisture content about 6.64% and moisture content about 15% are resulting the same PXRD diffractogram. This confirms the water molecules up to moisture content about 6% is present in crystal lattice and the excess water is present in surface of the crystal. In an another embodiment, the present disclosure, the hydrate form of 6-carboxy-2-(3,5-dichlorophenyl)-benzoxazole meglumine having DSC as depicted in FIG. 1 and having TGA as depicted in FIG. 2.

In the case of O=C(O)c1ccc2nc(-c3cc(Cl)cc(Cl)c3)oc2c1 [6-carboxy-2-(3,5-dichlorophenyl)-benzoxazole meglumine], the “water content after drying” value is reported as “not considerably reduced”.
